Laboratory results taken from ChEMBL document CHEMBL1146427, “Identification of the novel antimicrobial fatty acid (5Z,9Z)-14-methyl-5,9-pentadecadienoic acid in Eunicea succinea” (J Nat Prod, 1997).
In brackets after ≈: the same amount, converted by molar mass.

What was measured:
Staphylococcus aureus = assay: Antibacterial activity against Staphylococcus aureus ATCC 25923 after overnight incubation; format: functional, organism-based
Enterococcus faecalis = assay: Antibacterial activity against Streptococcus faecalis group D ATCC 29212 after overnight incubation; format: functional, organism-based
Pseudomonas aeruginosa = assay: Antibacterial activity against Pseudomonas aeruginosa ATCC 27853 after overnight incubation; format: functional
Escherichia coli = assay: Antibacterial activity against Escherichia coli ATCC 25922 after overnight incubation; format: functional

IC50 (Staphylococcus aureus): 36 µg/mL (≈ 143 µM)
MIC (Staphylococcus aureus): 240 µM (≈ 60.6 µg/mL)
IC50 (Enterococcus faecalis): < 10 µg/mL
MIC (Enterococcus faecalis): 160 µM (≈ 40.4 µg/mL)
MIC (Pseudomonas aeruginosa): > 100 µg/mL
MIC (Escherichia coli): > 100 µg/mL
Structure (SMILES): CC(C)CCC/C=C\CC/C=C\CCCC(=O)O
